In patent US12507703B2, “Methods, devices and compositions for preserving human milk” (The Trustees of Princeton University, priority 2023, dated 2025):
Values joined by “and” are separate entries in the source; they are usually repeats but may differ in a detail not shown here. Identical values can stand only once.

What follows are compounds tested on lipase (assay: Lipase/lipolysis assay (EnzChek Lipase Substrate, quenched BODIPY-fatty acid conjugate) on stored human milk; note: test concentration or dose not given here).

Q: CC(C)=CCC[C@](C)(O[C@@H]1O[C@H](CO)[C@@H](O)[C@H](O)[C@H]1O)[C@H]1CC[C@]2(C)[C@@H]1[C@H](O)C[C@@H]1[C@@]3(C)CC[C@H](O[C@@H]4O[C@H](CO)[C@@H](O)[C@H](O)[C@H]4O)C(C)(C)[C@@H]3CC[C@]12C [Ginsenoside F2] was tested. Which “Lipase (RFU)” value did it give?
A: 926.1742 RFU

Q: For CC(=O)O[C@@H]1CC[C@@]2(C)[C@@H](CC[C@]3(C)[C@@H]2C(=O)C=C2[C@@H]4[C@@H](C)[C@H](C)CC[C@]4(C)CC[C@]23C)[C@@]1(C)C(=O)O [AKBA], which “Lipase (RFU)” value is on record?
A: 1066.269 RFU

Q: For CCCCCCCCCCCCCCCCCCCCCC(=O)O[C@H]1CC[C@@]2(C)C(=CC[C@H]3[C@@H]4CC[C@H]([C@H](C)CCCC(C)C)[C@@]4(C)CC[C@@H]32)C1 [Cholesteryl behenate], which “Lipase (RFU)” value is on record?
A: 935.1979 RFU

Q: Which “Lipase (RFU)” value does the source give for COc1cc2oc(=O)ccc2c(OC)c1O [Fraxinol] here?
A: 772.0122 RFU

Q: How did the “Lipase (RFU)” value turn out when trans-Zeatin was run?
A: 1016.786 RFU

Q: NC(=O)C1=CN([C@@H]2O[C@H](COP(=O)([O-])OP(=O)([O-])OC[C@H]3O[C@@H](n4cnc5c(N)ncnc54)[C@H](O)[C@@H]3O)[C@@H](O)[C@H]2O)C=CC1.[Na+].[Na+] [NADH (disodium salt)] was tested. Which “Lipase (RFU)” value did it give?
A: 996.9696 RFU

Q: With Xanthan gum as the compound, how does the “Lipase (RFU)” value read?
A: 873.106 RFU

Q: With Maltopentaose as the compound, how does the “Lipase (RFU)” value read?
A: 907.876 RFU

Q: Which “Lipase (RFU)” value does the source give for COc1ccc(-c2cc(=O)c3c(O)c(OC)c(OC)cc3o2)cc1OC [5-Desmethylsinensetin] here?
A: 571020.7 RFU

Q: With COc1cc(CC(=O)O)ccc1O [Homovanillic acid] as the compound, how does the “Lipase (RFU)” value read?
A: 934.4466 RFU

Q: For Riboflavin (phosphate sodium), which “Lipase (RFU)” value is on record?
A: 760.1592 RFU

Q: (−)-Epiafzelechin was tested. Which “Lipase (RFU)” value did it give?
A: 915.141 RFU

Q: Which “Lipase (RFU)” value does the source give for O=C(CCc1ccc(O)cc1)c1c(O)cc(O[C@@H]2O[C@H](CO)[C@@H](O)[C@H](O)[C@H]2O)cc1O [Trilobatin] here?
A: 813.3377 RFU and 1211.862 RFU

Q: How did the “Lipase (RFU)” value turn out when CCCCCCCCCCCCCCCCCO [Compound 1-Heptadecanol, 1-Heptadecanol] was run?
A: 803.2986 RFU

Q: O=C([O-])[C@@H](O)CO.[Na+] [L-Glyceric acid (sodium)] was tested. Which “Lipase (RFU)” value did it give?
A: 822.8712 RFU

Q: How did the “Lipase (RFU)” value turn out when Estrone sulfate (potassium) was run?
A: 961.3154 RFU

Q: How did the “Lipase (RFU)” value turn out when Oc1ccc([C@H]2Oc3cc(O)cc(O)c3C[C@@H]2O)cc1 [(+)-Afzelechin] was run?
A: 1063.84 RFU

Q: With C=C[C@](C)(O)CC[C@H]1C(=C)CC[C@H]2C(C)(C)CCC[C@]12C [Manool] as the compound, how does the “Lipase (RFU)” value read?
A: 923.6944 RFU

Q: With OC[C@@H](O)[C@H](O)[C@H](O)[C@@H](O)CO [Dulcite] as the compound, how does the “Lipase (RFU)” value read?
A: 1020.567 RFU

Q: Which “Lipase (RFU)” value does the source give for C[C@@H]1O[C@@H](OC[C@H]2O[C@@H](Oc3c(-c4ccc(O)cc4)oc4cc(O)cc(O)c4c3=O)[C@H](O)[C@@H](O)[C@H]2O)[C@H](O)[C@H](O)[C@H]1O [Biorobin] here?
A: 791.185 RFU

Q: How did the “Lipase (RFU)” value turn out when O=c1c(O[C@@H]2O[C@H](CO)[C@H](O)[C@H](O)[C@H]2O[C@@H]2O[C@H](CO)[C@@H](O)[C@H](O)[C@H]2O)c(-c2ccc(O)cc2)oc2cc(O)cc(O)c12 [Panasenoside] was run?
A: 1093.409 RFU

Q: Which “Lipase (RFU)” value does the source give for CC(=O)C1=CC[C@H]2[C@@H]3CCC4=CC(=O)CC[C@]4(C)[C@H]3CC[C@]12C [Compound 16-Dehydroprogesterone] here?
A: 1000.658 RFU

Q: Which “Lipase (RFU)” value does the source give for CC1O[C@@H](OC[C@H]2O[C@@H](Oc3c(-c4ccc(O)cc4)oc4cc(O)cc(O)c4c3=O)C(O[C@@H]3O[C@H](C)[C@H](O)C(O)C3O)C(O)[C@H]2O)C(O)[C@@H](O)[C@H]1O (stereo partly drawn) [Mauritianin] here?
A: 860.4015 RFU

Q: Which “Lipase (RFU)” value does the source give for CC[C@H](N)C(=O)O [H-Abu-OH] here?
A: 993.6587 RFU

Q: With Fucoidan from Macrocystis pyrifera as the compound, how does the “Lipase (RFU)” value read?
A: 384.150 RFU

Q: CC(=O)C(=O)c1ccccc1 [1-Phenylpropane-1,2-dione] was tested. Which “Lipase (RFU)” value did it give?
A: 1078.742 RFU

Q: With C[C@H](O)[C@H](O)c1cnc2nc(N)[nH]c(=O)c2n1 [Compound 6-Biopterin] as the compound, how does the “Lipase (RFU)” value read?
A: 1286.983 RFU
